# Laboratory results reported in patent US4769461A, “Quinolinyl benzene hydroxamic acids as anti-inflammatory/antiallergic agents” (American Home Products Corporation, priority 1986, dated 1988).
# Read-outs that look alike come from different tables or passages of the source.
# Experiments:
# [1] = tested on: carrageenan paw edema (acute inflammatory response); experiment: Rat carrageenan paw edema assay; format: in vivo, rat (male Sprague-Dawley); settings: for ED50: Rattus norvegicus, po, read-out: Oral ED50 (95% C.L.) mg/kg; for % Inhibition at 100 mg/kg (peroral): 1 hour prior to carrageenan, edema at 3 hours
# Method: The compounds of the invention are further tested in the rat carrageenan paw edema assay to determine their ability to inhibit the acute inflammatory response. This assay is carried out as follows: 140-180 gm male Sprague-Dawley rats, in groups of 6 animals are injected subcutaneously in the right paw with 0.1 ml of 1% carrageenan at zero time. Mercury plethysmographic readings (ml) of the paw are made at zero time and 3 hours later. Test compounds are suspended or dissolved in 0.5% methylcellulose and given perorally 1 hour prior to carrageenan administration. The increase in paw volume (edema in ml.) produced by the carrageenan is measured. […] Unpaired Student's t-test is used to determine statistical significance.
# [2] = tested on: ovalbumin induced bronchospasm mediated by endogenous products of lipoxygenase oxidation of arachidonic acid; experiment: Inhibition of ovalbumin induced bronchospasm in guinea pigs by endogenous mediators of bronchoconstriction; format: in vivo, guinea pig (male Hartley); settings: 10 minutes before ovalbumin challenge; for ED50: Cavia porcellus
# Method: The assay of this Example measures the in vivo ability of the compounds of the invention to inhibit the bronchospasm induced in guinea pigs by endogenous mediators of the bronchoconstriction.
# (§1) The assay is carried out as follows:
# Male Hartley strain guinea pigs weighing 250-350 g are sensitized to chicken ovalbumin (OA) (10 mg i.p.) on days 1 and 3 and used starting on day 26. The animals are anesthetized with pentobarbital sodium (50 mg/kg, i.p.), bilateral vagotomy is performed, and the jugular vein is cannulated for injection of drugs and the carotid artery for monitoring blood pressure. The trachea is cannulated for artificial ventilation by miniature Starling pump and for indirect measurement of respiratory volume changes. Succinylcholine (2 mg/kg, i.v.) is administered to arrest spontaneous respiration. A cyclooxygenase inhibitor, indomethacin (10 mg/kg in tris buffer, i.v. at 9 min.) is administered to shunt arachidonic metabolism to lipoxygenase pathways. One minute later, chlorpheniramine (1.0 mg/kg in saline, i.v.) is given to attenuate the histaminic component of anaphylactic bronchoconstriction. Test drugs (dissolved in propylene glycol, polyethylene glycol or saline) are administered either intraduodenally, perorally or by aerosol at 2 or 10 minutes before antigen challenge. Anaphylactic bronchoconstriction is induced by administration by breaths of aerosolized OA (1%) or by intravenous administration of 0.1-0.3 mg/kg OA in saline. Control animals receive solvent (2 ml/kg i.d. or appropriate aerosol) in place of drug.
# (§2) Respiratory volume changes are determined by a calibrated piston whose travel is recorded, via a linear transducer, on a Beckman Dynograph recorder. Maximal bronchoconstrictor volume is determined by clamping off the trachea at the end of the experiment. Overflow volumes at minutes 1, 3 and 5 are obtained from the recorded charts.
# Area under the volume overflow curve (AUC) is estimated, using the overflow values at 1, 3 and 5 minutes, and expressed as a percentage of the maximal overflow AUC (equation 1): [formula] Drug effects are reported as percent inhibition of % max AUC values obtained from appropriate control animals (equation 2): [formula] Student's t-test for unpaired data is used to determine statistical significance. Dose response curves are generated and ED50 doses are interpolated from the regression lines.
# [3] = tested on: synthesis of the lipoxygenase product 5-HETE in rat polymorphonuclear leukocytes; experiment: Inhibition of 5-HETE synthesis by rat glycogen elicited polymorphonuclear leukocytes; format: cell-based, rat (female Wistar)
# Method: The assay of this Example measures the ability of the compounds of the invention to inhibit the synthesis of 5-HETE by rat glycogen elicited polymorphonuclear leukocytes.
# as §1
# (§3) Peritoneal PMN are obtained from female Wistar rats (150-250 g) that received an i.p. injection of 6% glycogen (10 ml). After 24 hours, rats are killed by CO2 asphyxiation and peritoneal cells are harvested by peritoneal lavage using Ca^++ and Mg^++ free Hanks' balanced salt solution (HBSS). The peritoneal exudate is centrifuged at 400 g for 10 minutes. After centrifugation, the lavaged fluid is removed and the cell pellet is resuspended in HBSS containing Ca^++ and Mg^++ and 10 mM L-cysteine at a concentration of 2×10^7 cells/ml. To 1 ml portions of cell suspension, test drugs or vehicle are added and incubated at 37° C. for 10 minutes. Following this preincubation, the calcium ionophore (10 μM), A23187, is added together with 0.5 μCi [14 C] arachidonic acid and further incubated for 10 minutes. The reaction is stopped by the addition of ice cold water (3 ml) and acidifying to pH 3.5. […] After chromatography, the areas associated with 5-HETE standard are identified by autoradiography, cut out and quantitated by liquid scintillation.
# The compounds of this invention are tested in this assay at a level of 10 μm. […] Some results are expressed as an IC50 value.
# [4] = tested on: LTD4 induced bronchoconstriction; experiment: Inhibition of bronchospasm induced in guinea pigs by exogenously administered leukotrienes C4 and/or D4; format: in vivo, guinea pig (male Hartley); settings: 10 minutes before induction of bronchospasm; for ED50: Cavia porcellus, read-out: IC50 (the source's name)
# Method: The assay of this Example measures the in vivo ability of the compounds of the invention to inhibit the bronchospasm induced in guinea pigs by the exogenously administered leukotrienes C4 and/or D4.
# This assay is carried out as follows:
# Male Hartley strain guinea pigs (350-600 g) are anesthetized with pentobarbital sodium (50 mg/kg, i.p.). The jugular vein is cannulated for injection of drugs and the carotid artery for monitoring blood pressure. The trachea is cannulated for artificial ventilation by a miniature Starling pump and for indirect measurement of respiratory volume changes. The animals are then pretreated with succinylcholine (2 mg/kg i.v.) and indomethacin (10 mg/kg i.v. in trizma 8.3 buffer, 9 minutes prior to leukotriene challenge). Submaximal bronchoconstrictor responses are established in control animals by varying the dose-levels of leukotriene. Intravenous dose-levels for LTC4 range from 0.4 to 0.6 μg/kg and for LTD4 the range is from 0.3 to 0.5 μg/kg. The aerosol bronchoprovocation dose for LTC4 is generated from 1.6 μM solution and for LTD4 from a 2.0 μM solution.
# Test drugs (dissolved in a solvent such as propylene glycol, polyethylene glycol 400 or saline) are administered either intraduodenally, by aerosol or perorally at 2 or 10 minutes before induction of bronchospasm by administration of either LTC4 or LTD4 at the predetermined dose-levels. Aerosols of soluble drugs or leukotrienes are produced in-line for 10 seconds only by actuation of an ultrasonic nebulizer (Monaghan). Aerosolized drug dosage is expressed in terms of solution concentration and by a fixed aerosol exposure time (approximately 10 seconds). Control animals receive solvent (2 ml/kg i.d. or appropriate aerosol) in place of drug.
# as §2, with “at” for “at minutes”, “5 minutes” for “5”
# Area under the volume overflow curve (AUC) is estimated, using the overflow values at 1, 3 and 5 minutes, and expressed as a percentage of the maximal overflow AUC (equation 1): [formula] Drug effects are reported as percent inhibition of % max AUC values obtained from appropriate control animals (equation 2): [formula]
# Student's t-test for unpaired data is used to determine statistical significance (p<0.05). IC50 values can also be determined by inverse prediction from linear regression lines through points between 10 and 90% inhibition.
# [5] = tested on: synthesis of the cyclooxygenase product PGE2 in rat polymorphonuclear leukocytes; experiment: Inhibition of synthesis of the cyclooxygenase oxidation product PGE2 (procedure of Example 5); format: cell-based, rat (female Wistar); settings: tested at 10 μm
# Method: as §3, with “3.5. Lipoxygenase products are then extracted twice into diethyl ether.” for “3.5.”, “scintillation. […]” for “scintillation.”
# In this assay, the procedure of Example 5 is carried out as described. […] After chromatography, the areas associated with the PGE2 standard are identified by autoradiography, cut out and quantitated by liquid scintillation techniques.
# The results are calculated as in Example 5.
# [6] = 25 mg/kg perorally administered
smiles,measurement,setting,value
"CC(=O)Oc1ccccc1C(=O)O [Aspirin, reference compound]",ED50,[1],145 mg/kg
"CONC(=O)Cc1cccc(OCc2ccc3ccccc3n2)c1 [Example 1, O-methyl-3-[(2-quinolinyl)methoxy]benzeneaceto hydroxamate]",% Inhibition at 100 mg/kg (peroral),[1],50%
same,% Inhibition of Max AUC,[2]; 25 mg/kg intraduodenal,56.0%
same,% Inhibition of Max AUC,[2]; [6],82.8%
same,ED50,"[2]; po, perorally administered",2.5 mg/kg
same,ED50,[2]; intraduodenal,7.3 mg/kg
same,IC50,"[3]; Leukocyte, rat PMN",10.5 µM
same,% Inhibition,[4]; 25 mg/kg intraduodenally,90.6%
same,% Inhibition,[4]; 25 mg/kg perorally,86.3%
same,ED50,"[4]; po, perorally administered",5.9 mg/kg
same,ED50,[4]; intraduodenally administered,1.8 mg/kg
"CONC(=O)c1cccc(OCc2ccc3ccccc3n2)c1 [Example 2A, O-methyl-3-[(2-quinolinyl)methoxy]benzoic hydroxyamate]",% Inhibition at 100 mg/kg (peroral),[1],32%
same,% Inhibition of Max AUC,[2]; 25 mg/kg intraduodenal,76.6%
same,% Inhibition of Max AUC,[2]; [6],-1.5%
same,% Inhibition,[4]; 25 mg/kg intraduodenally,92.8%
same,% Inhibition,[4]; 25 mg/kg perorally,72.4%
same,ED50,"[4]; po, perorally administered",13.1 mg/kg
same,ED50,[4]; intraduodenally administered,3.16 mg/kg
"O=C(NOCc1ccccc1)c1cccc(OCc2ccc3ccccc3n2)c1 [Example 2B, O-benzyl-3-[(2-quinolinyl)methoxy]benzoic hydroxamate]",% Inhibition at 100 mg/kg (peroral),[1],42%
same,>50% Inhibition at 10 μm,[5],"+ (those compounds having an inhibition of >50% are designated by a ""+"")"
same,>50% Inhibitory at 10 μm,[3]; tested at 10 μm,"+ (those compounds having an inhibition of >50% are designated by a ""+"")"
same,% Inhibition,[4]; 25 mg/kg intraduodenally,69.4%
"O=C(Cc1cccc(OCc2ccc3ccccc3n2)c1)NOCc1ccccc1 [Example 2C, O-benzyl-3-[(2-quinolinyl)methoxy]benzeneaceto hydroxamate]",% Inhibition at 100 mg/kg (peroral),[1],37%
"CONC(=O)Cc1cccc(OCc2nc3ccccc3n2C)c1 [Example 2D, O-methyl-3-[1-methyl(2-benzimidazoyl)methoxy]benzoaceto hydroxamate]",% Inhibition at 100 mg/kg (peroral),[1],48%
same,>50% Inhibition at 10 μm,[5],"+ (those compounds having an inhibition of >50% are designated by a ""+"")"
"CONC(=O)Cc1cccc(OCc2nc3ccccc3s2)c1 [Example 2E, O-methyl-3-[(2-benzthiazoyl)methoxy]benzoaceto hydroxamate]",% Inhibition at 100 mg/kg (peroral),[1],38%
"O=C(Cc1cccc(OCc2ccc3ccccc3n2)c1)NO [Example 3, 3-[(2-Quinolinyl)methoxy]benzeneaceto hydroxamic acid]",% Inhibition,[4]; 25 mg/kg intraduodenally,10%
"O=C(NO)c1cccc(OCc2ccc3ccccc3n2)c1 [Example 4A, 3-[(2-quinolinyl)methoxy]benzoic hydroxamic acid]",% Inhibition,[4]; 25 mg/kg intraduodenally,32.8%
"COc1ccc2c(c1)c(CC(=O)O)c(C)n2C(=O)c1ccc(Cl)cc1 [Indomethacin, reference compound]",ED50,[1],3.7 mg/kg
